Source: patent US5719121A, “Use of balhimycin as production promoter in animals, and production promoter compositions” (Hoechst Aktiengesellschaft, priority 1995, dated 1998)

Test system: broilers
Assay: Feeding experiment with balhimycin in broilers (floor management, 35 days): growth and feed utilization
Type: in vivo
Conditions: for Feed Intake, compared to the control value of 100% / Feed Utilization, compared to the control value of 100% / Live weight End, compared to the control value of 100% / Live weight Gain, compared to the control value of 100%: control = 100; for Feed Intake / Feed Utilization kg of FI/kg of LW / Live weight End: group mean
Protocol: A feeding experiment with balhimycin was carried out in floor management using […] broilers (80 males and 80 females) which were divided into 5 groups:
1st group: untreated control
2nd group: balhimycin, 15 mg/kg of feed
3rd group: balhimycin, 30 mg/kg of feed
4th group: balhimycin, 45 mg/kg of feed
5th group: balhimycin, 60 mg/kg of feed
The feed had the following composition (Table 1):
The animals were kept in boxes of 40 animals each and were given the feed mixtures for 35 days in accordance with their group assignment.
In Table 2, the first number in each column directed to weight change, feed intake, and feed utilization, indicates the number average for the broilers in each group. The second number indicates the standard deviation of the data. The third number indicates the percent difference of each group as compared to the control value of 100%.
Different letters (a, b, ab, c) in the gain column denote significant differences between the groups (P<0.05). Values having the same letter or letters indicate that there is no significant difference between the groups.

CNC(CC(C)C)C(=O)NC1C(=O)NC(CC(N)=O)C(=O)NC2C(=O)NC3C(=O)NC(C(=O)NC(C(=O)O)c4cc(O)cc(O)c4-c4cc3ccc4O)C(OC3C[C@](C)(N)C(=O)C(C)O3)c3ccc(c(Cl)c3)Oc3cc2cc(c3OC2O[C@H](CO)C(O)[C@H](O)C2O)Oc2ccc(cc2Cl)C1O (stereo partly shown) [Balhimycin]
Feed Intake, compared to the control value of 100% (balhimycin 15 mg/kg of feed): 99.9% | Feed Utilization, compared to the control value of 100% (balhimycin 15 mg/kg of feed): 92.0% | Live weight End, compared to the control value of 100% (balhimycin 15 mg/kg of feed): 108.1% | Live weight Gain, compared to the control value of 100% (balhimycin 15 mg/kg of feed): 108.4% | Feed Intake (balhimycin 15 mg/kg of feed): 72.5 g/day | Feed Utilization kg of FI/kg of LW (balhimycin 15 mg/kg of feed): 1.62 kg of FI/kg of LW | Live weight End (balhimycin 15 mg/kg of feed): 1602.0 g | Feed Intake, compared to the control value of 100% (balhimycin 30 mg/kg of feed): 100.6% | Feed Utilization, compared to the control value of 100% (balhimycin 30 mg/kg of feed): 93.8% | Live weight End, compared to the control value of 100% (balhimycin 30 mg/kg of feed): 110.7% | Live weight Gain, compared to the control value of 100% (balhimycin 30 mg/kg of feed): 110.8% | Feed Intake (balhimycin 30 mg/kg of feed): 75.3 g/day | Feed Utilization kg of FI/kg of LW (balhimycin 30 mg/kg of feed): 1.65 kg of FI/kg of LW | Live weight End (balhimycin 30 mg/kg of feed): 1640.0 g | Feed Intake, compared to the control value of 100% (balhimycin 45 mg/kg of feed): 100.6% | Feed Utilization, compared to the control value of 100% (balhimycin 45 mg/kg of feed): 92.0% | Live weight End, compared to the control value of 100% (balhimycin 45 mg/kg of feed): 109.1% | Live weight Gain, compared to the control value of 100% (balhimycin 45 mg/kg of feed): 109.3% | Feed Intake (balhimycin 45 mg/kg of feed): 73.0 g/day | Feed Utilization kg of FI/kg of LW (balhimycin 45 mg/kg of feed): 1.62 kg of FI/kg of LW | Live weight End (balhimycin 45 mg/kg of feed): 1617.0 g | Feed Intake, compared to the control value of 100% (balhimycin 60 mg/kg of feed): 100.7% | Feed Utilization, compared to the control value of 100% (balhimycin 60 mg/kg of feed): 93.2% | Live weight End, compared to the control value of 100% (balhimycin 60 mg/kg of feed): 108.0% | Live weight Gain, compared to the control value of 100% (balhimycin 60 mg/kg of feed): 108.1% | Feed Intake (balhimycin 60 mg/kg of feed): 73.1 g/day | Feed Utilization kg of FI/kg of LW (balhimycin 60 mg/kg of feed): 1.64 kg of FI/kg of LW | Live weight End (balhimycin 60 mg/kg of feed): 1600.0 g
